{
  "source": "paper PMC3400893",
  "about": "(Clinical Pharmacology and Therapeutics, 2012)",
  "key": {"[1]": {"system": "patients with T2DM", "test": "28-day randomized placebo-controlled study: efficacy/pharmacodynamics", "type": "in vivo, human", "settings": "for Decrease in FPG from baseline after correcting for changes in placebo values: after 28 days; for OGTT glucose excursions above baseline FPG lower than placebo: corrected for FPG at hour 0"}, "[2]": {"test": "28-day study: plasma LX4211 pharmacokinetics", "type": "in vivo, human", "settings": "for Tmax: both, human, plasma, oral"}, "[3]": {"system": "patients with T2DM", "test": "Single-dose three-way crossover study: pharmacodynamics", "type": "in vivo, human"}, "[4]": {"system": "healthy volunteers", "test": "Phase I trial in healthy volunteers", "type": "in vivo, human", "settings": "300-mg dose, phase I trial (data not shown)"}, "[5]": {"system": "patients with T2DM", "test": "28-day study: safety, adverse events and clinical laboratory values"}, "[6]": {"system": "humans", "settings": "taken orally at high doses; ref [46]; cited from earlier work"}, "[7]": {"settings": "ref [47],[48]; cited from earlier work"}, "[8]": {"settings": "single 300-mg dose of any of the LX4211 formulations"}, "[9]": {"settings": "150 or 300 mg once daily for 28 days"}},
  "data": [
    {"compound": "CCOc1ccc(Cc2cc([C@@H]3O[C@H](SC)[C@@H](O)[C@H](O)[C@H]3O)ccc2Cl)cc1", "note": "[LX4211, (2S,3R,4R,5S,6R)-2-(4-chloro-3-(4-ethoxybenzyl)phenyl)-6-(methylthio)tetrahydro-2H-pyran-3,4,5-triol]", "values": [
      {"measurement": "FPG reduction from baseline", "setting": "[1]; 150 mg once daily, day 7, placebo 9 mg/dl increase", "result": 30, "unit": "mg/dL"},
      {"measurement": "Decrease in FPG from baseline after correcting for changes in placebo values", "setting": "[1]; 150 mg", "result": 39, "unit": "mg/dL"},
      {"measurement": "Net 24-h UGE increase relative to placebo", "setting": "[1]; 150 mg, day 1", "result": 44, "unit": "g/day"},
      {"measurement": "OGTT glucose AUC (hour 0 to 4) lower than placebo", "setting": "[1]; 150 mg, day 2", "result": 30, "unit": "%"},
      {"measurement": "OGTT glucose AUC (hour 0 to 4) lower than placebo", "setting": "[1]; 150 mg, day 13", "result": 35, "unit": "%"},
      {"measurement": "OGTT glucose AUC (hour 0 to 4) lower than placebo", "setting": "[1]; 150 mg, day 27", "result": 38, "unit": "%"},
      {"measurement": "OGTT glucose excursions above baseline FPG lower than placebo", "setting": "[1]; 150 mg, day 27", "result": 46, "unit": "%"},
      {"measurement": "Decrease from baseline HbA1c after correcting for changes in placebo values", "setting": "[1]; 150 mg, day 28", "result": 0.66},
      {"measurement": "Net 24-h UGE increase relative to placebo", "setting": "[1]; 150 mg, day 28", "result": 37, "unit": "g/day"},
      {"measurement": "Decrease in FPG from baseline after correcting for changes in placebo values", "setting": "[1]; 300 mg", "result": 55, "unit": "mg/dL"},
      {"measurement": "Net 24-h UGE increase relative to placebo", "setting": "[1]; 300 mg, day 1", "result": 65, "unit": "g/day"},
      {"measurement": "OGTT glucose AUC (hour 0 to 4) lower than placebo", "setting": "[1]; 300 mg, day 2", "result": 30, "unit": "%"},
      {"measurement": "OGTT glucose AUC (hour 0 to 4) lower than placebo", "setting": "[1]; 300 mg, day 13", "result": 36, "unit": "%"},
      {"measurement": "OGTT glucose AUC (hour 0 to 4) lower than placebo", "setting": "[1]; 300 mg, day 27", "result": 39, "unit": "%"},
      {"measurement": "OGTT glucose excursions above baseline FPG lower than placebo", "setting": "[1]; 300 mg, day 27", "result": 46, "unit": "%"},
      {"measurement": "Decrease from baseline HbA1c after correcting for changes in placebo values", "setting": "[1]; 300 mg, day 28", "result": 0.76},
      {"measurement": "Net 24-h UGE increase relative to placebo", "setting": "[1]; 300 mg, day 28", "result": 48, "unit": "g/day"},
      {"measurement": "Amount of glucose excreted in the first 8 h vs the period spanning 8–24 h", "setting": "[1]; LX4211-treated groups", "result": "comparable"},
      {"measurement": "Total GLP-1 levels after meals", "setting": "[1]; LX4211-treated groups, day 1 (similar on day 28), post hoc analysis", "result": "nonsignificant increase"},
      {"measurement": "Mean serum triglyceride (TG) level (fell to within the normal range)", "setting": "[1]; both LX4211-treated groups (150 and 300 mg), by day 14", "result": "< 151", "unit": "mg/dL"},
      {"measurement": "Mean homeostasis model assessment of insulin resistance vs placebo", "setting": "[1]; both LX4211 groups, day 27", "result": "significantly lower"},
      {"measurement": "Serum TG vs placebo", "setting": "[1]; both doses, post hoc analysis", "result": "statistically significant TG reductions"},
      {"measurement": "24-h UGE vs placebo", "setting": "[1]; both treatment groups, days 1, 14 and 28", "result": "significantly increased"},
      {"measurement": "2-h postprandial glucose (PPG) levels vs placebo", "setting": "[1]; each treatment group, days 1, 7, 21 and 28", "result": "significantly lowered"},
      {"measurement": "Patients with HbA1c levels ≤7.0%", "setting": "[1]; patients who received LX4211 (150 or 300 mg), day 28, placebo 18%", "result": 50, "unit": "%"},
      {"measurement": "Time after dosing at which Cmax appeared", "setting": "[2]; 150 and 300 mg, oral liquid", "result": "0.5 to 2.0", "unit": "h"},
      {"measurement": "Dose proportionality of increases in Cmax and AUC", "setting": "[2]; 150 vs 300 mg", "result": "slightly more than dose-proportional"},
      {"measurement": "Steady state reached", "setting": "[2]; based on Cmax, AUC0–tau, Cmin, possibly even by day 7", "result": "≤ 14", "unit": "days"},
      {"measurement": "Tmax", "setting": "[2]; Median tmax, days 14 and 28, the two dose groups", "result": "1 to 1.5", "unit": "h"},
      {"measurement": "Tmax", "setting": "[2]; tmax, individual values, the two dose groups", "result": "0.48 to 2.02", "unit": "h"},
      {"measurement": "Time at which plasma concentrations were detected", "setting": "[2]; each LX4211 dose, oral liquid", "result": "≤ 15", "unit": "min"},
      {"measurement": "Glucagon values vs day −1", "setting": "[3]; single 300-mg dose", "result": "not altered"},
      {"measurement": "Plasma insulin between 0 and 13 h vs day −1", "setting": "[3]; [8]", "result": "significantly decreased"},
      {"measurement": "Total GLP-1 between 0 and 13 h vs day −1", "setting": "[3]; [8]", "result": "significantly increased"},
      {"measurement": "Total PYY between 0 and 13 h vs day −1", "setting": "[3]; [8]", "result": "significantly increased"},
      {"measurement": "UGE over the next 24 h vs pretreatment day (day −1)", "setting": "[3]; [8]", "result": "significantly increased"},
      {"measurement": "Tolerability and glycosuric effect", "setting": "[4]", "result": "well tolerated and produced a maximal glycosuric effect"},
      {"measurement": "Renal toxicity (laboratory data)", "setting": "[5]; [9]", "result": "no evidence of renal toxicity"},
      {"measurement": "Treatment-emergent urinary tract infections, genital infections, CV events, episodes of hypoglycemia", "setting": "[5]; [9]", "result": "no treatment-emergent urinary tract infections, genital infections, CV events, or episodes of hypoglycemia"},
      {"measurement": "24-h urine volume relative to placebo", "setting": "[5]; LX4211-treated groups, day 1", "result": "slight but nonsignificant increase"},
      {"measurement": "Urinary calcium excretion", "setting": "[5]; LX4211-treated groups, days 1, 14, 28", "result": "at no time during the study was urinary calcium excretion increased"},
      {"measurement": "Safety and tolerability", "setting": "[5]; at the doses and schedule employed (150 or 300 mg once daily, 28 days)", "result": "safe and well tolerated"},
      {"measurement": "Urinary sodium and chloride excretion relative to placebo", "setting": "[5]; day 1, statistically significant in the 300 mg group", "result": "modest increases"},
      {"measurement": "Frequency of gastrointestinal side effects relative to placebo", "setting": "[5]; even after challenge with 75 g of glucose during OGTTs", "result": "did not observe an increase"}
    ]},
    {"compound": "O=C(CCc1ccc(O)cc1)c1c(O)cc(O)cc1O[C@@H]1O[C@H](CO)[C@@H](O)[C@H](O)[C@H]1O", "note": "[Phlorizin, phlorizin]", "values": [
      {"measurement": "Nausea", "setting": "[6]", "result": "induces nausea"},
      {"measurement": "Conversion in the small intestine", "setting": "[7]", "result": "rapidly converted to phloretin"}
    ]}
  ]
}
